Laboratory results: patent publication US20080255111A1, “Tissue Factor Production Inhibitor” (SANKYO COMPANY LIMITED, priority 2004, published 2008)

Test system: tissue factor mRNA in LPS-stimulated mouse peritoneal macrophages
Assay: Assay of mouse peritoneal macrophage tissue factor mRNA
Assay type: cell-based
Details: 6 h, read-out: Expressed Amount of Tissue Factor mRNA
Procedure: 3 ml of thioglycolate (Sigma Chemical) were administered into the abdominal cavity of male C57BL/6J mice (Charles River) followed 4 days later by intraperitoneal administration of 10 ml of phosphate-buffered saline (hereinafter PBS) containing heparin (Hishiyama Pharmaceutical) at a concentration of 5 U/ml and recovery of intraperitoneal macrophages using a syringe. After centrifuging the recovered macrophages at 1000 rpm and 4° C. for 5 minutes, the supernatant was discarded followed by suspending in RPMI 1640 medium (Gibco Laboratories) containing normal fetal bovine serum (hereinafter FBS) at a concentration of 10%. The macrophages were adjusted to a concentration of 4×10^6 cells/ml, disseminated in 1 ml aliquots in a 12-well plate, and cultured for 3 hours at 37° C. using a CO2 incubator. Subsequently, the cells were washed with PBS, and the medium was replaced with RPMI medium containing lipoprotein-deficient serum (hereinafter LPDS) (Sigma Chemical) at a concentration of 5%. Test compounds dissolved in dimethylsulfoxide (DMSO) at a concentration of 1 μM were added to make a final DMSO concentration of 0.1%, and after warming for 18 hours at 37° C., lipopolysaccharide (hereinafter LPS) (Sigma Chemical) was added to make a concentration of 100 ng/ml. The cells were recovered 6 hours later, RNA was extracted using the Rneasy Mini Kit (Qiagen), and after carrying out a reverse transcription reaction using the First-Strand cDNA Synthesis Kit (Amersham Biosciences), the expressed amounts of tissue factor mRNA and cyclophylin mRNA were measured by quantitative RT-PCR (TaqMan, Applied Biosystems 7700 Sequence Detector).
Quantitative RT-PCR for tissue factor was carried out using the aforementioned TF-1 and TF-2 as primers and TF-P as probes, while quantitative PCR for cyclophilin was carried out using the aforementioned Cyl-1 and Cyl-2 as primers and Cyl-P as probes. Both were carried out by warming for 2 minutes at 50° C. and then for 10 minutes at 95° C., followed by 40 warming cycles consisting of warming for 15 seconds at 95° C. and then for 1 minute at 60° C. The expressed amount of tissue factor mRNA was calculated as a relative value of the expressed amount of cyclophilin mRNA. The expressed amounts of tissue factor mRNA resulting from the test compounds at a concentration of 1 μM or 10 μM based on a value of 100 for the expressed amount of tissue factor mRNA in a case of treatment with DMSO at a concentration of […] are shown in Table 7.

`C[C@H](CCC(=O)N(C)C)[C@H]1CCC2C3CC=C4C[C@@H](O)CC[C@]4(C)C3CC[C@@]21C` (stereo partly drawn) [Compound J, N,N-Dimethyl-3β-hydroxycholenamide, reference compound] gave a mrna remaining at 10 µM of 39.3%.

Same assay, conditions: test compound 1 μM, 18 h, then LPS 100 ng/ml for 6 h, relative to cyclophilin mRNA, DMSO treatment = 100, read-out: Expressed Amount of Tissue Factor mRNA

First: CN(C(=S)C1CC1)c1ccc(OCc2cc3c(F)cc(F)cc3n2C(=O)OC(C)(C)C)cc1 [Reference Example 4, tert-Butyl 2-({4-[(cyclopropylcarbonothioyl)(methyl)amino]phenoxy}methyl)-4,6-difluoro-1H-indole-1-carboxylate]
Second: CC(=O)N(C)c1ccc(OCc2cc3ccc(F)cc3n2C(=O)OC(C)(C)C)cc1 [Reference Example 3, tert-Butyl 2-({4-[acetyl(methyl)amino]phenoxy}methyl)-6-fluoro-1H-indole-1-carboxylate]
The mrna remaining at 1 µM of the first is lower: 57.6% for the first, 67.9% for the second.

Compared with `CC(C)(C)OC(=O)c1c(COc2ccc(-c3ccc(CC(=O)O)cc3)cc2)ccc(C(F)(F)F)c1O` [Reference Example 13, (4′-{[2-(tert-Butoxycarbonyl)-3-hydroxy-4-(trifluoromethyl)benzyl]oxy}-1,1′-biphenyl-4-yl)acetic acid], `CC(C)(C)OC(=O)c1c(COc2ccc(-c3ccc(CC(=O)O)cc3Cl)cc2)ccc(C(F)(F)F)c1O` [Reference Example 26, (4′-{[2-(tert-Butoxycarbonyl)-3-hydroxy-4-(trifluoromethyl)benzyl]oxy}-2-chloro-1,1′-biphenyl-4-yl)acetic acid] is lower in mrna remaining at 1 µM: 65.4% for the first, 42.3% for the second.

Going from `CN(C(=O)CC1CC1)c1ccc(OCc2ccc(C(F)(F)F)c(O)c2C(=O)OC(C)(C)C)cc1` [Reference Example 8, tert-Butyl 6-({4-[(cyclopropylacetyl) (methyl)amino]phenoxy}methyl)-2-hydroxy-3-(trifluoromethyl)benzoate] to `CN(c1ccc(OCc2ccc(C(F)(F)F)c(O)c2C(=O)OC(C)(C)C)cc1)S(C)(=O)=O` [Reference Example 6, tert-Butyl 2-hydroxy-6-({4-[methyl(methylsulfonyl)amino]phenoxy}methyl)-3-(trifluoromethyl)benzoate], the mrna remaining at 1 µM rises from 51.8% to 62.8%.

Compared with `CC(C)(C)OC(=O)c1c(COc2ccc(-c3ccc(CC(=O)O)cc3N)cc2)ccc(C(F)(F)F)c1O` [Reference Example 30, (2-Amino-4′-{[2-(tert-butoxycarbonyl)-3-hydroxy-4-(trifluoromethyl)benzyl]oxy}-1,1′-biphenyl-4-yl)acetic acid], `Cc1cc(CC(=O)O)ccc1-c1ccc(OCc2ccc(C(F)(F)F)c(O)c2C(=O)OC(C)(C)C)cc1` [Reference Example 24, (4′-{[2-(tert-Butoxycarbonyl)-3-hydroxy-4-(trifluoromethyl)benzyl]oxy}-2-methyl-1,1′-biphenyl-4-yl)acetic acid] is lower in mrna remaining at 1 µM: 65.6% for the first, 61.8% for the second.

First: CCc1ccc(COc2ccc(N(C)C(C)=O)cc2)c(C(=O)OC(C)(C)C)c1O [Reference Example 7, tert-Butyl 6-({4-[acetyl(methyl)amino]phenoxy}methyl)-3-ethyl-2-hydroxybenzoate]
Second: CC(C)c1ccc(COc2ccc(-c3ccc(CC(=O)O)cc3)cc2)c(C(=O)OC(C)(C)C)c1O [Reference Example 18, (4′-{[2-(tert-Butoxycarbonyl)-3-hydroxy-4-isopropylbenzyl]oxy}-1,1′-biphenyl-4-yl)acetic acid]
The mrna remaining at 1 µM of the first is higher: 68% for the first, 56.9% for the second.

First: O=c1c2cc(OCCO)ccc2nc(Cc2ccccc2)n1-c1ccc(C(O)(C(F)(F)F)C(F)(F)F)cc1 [Compound E, 2-Benzyl-6-(2-hydroxyethoxy)-3-[4-[2,2,2-trifluoro-1-hydroxy-1-(trifluoromethyl)ethyl]phenyl]-4(3H)-quinazolinone]
Second: Cc1cc(C(O)(C(F)(F)F)C(F)(F)F)ccc1-n1c(Cc2cccnc2)nc2ccc(-n3cncn3)cc2c1=O [Compound I, 3-{2-Methyl-4-[2,2,2-trifluoro-1-hydroxy-1-(trifluoromethyl)ethyl]phenyl}-2-(3-pyridylmethyl)-6-(1H-1,2,4-triazol-1-yl)-4(3H)-quinazolinone]
The mrna remaining at 1 µM of the first is lower: 37.7% for the first, 48.6% for the second.

Compared with `CC(C)(C)OC(=O)n1c(COc2ccc(-c3ccc(CC(=O)O)s3)cc2)cc2ccc(F)cc21` [Reference Example 11, [5-(4-{[1-(tert-Butoxycarbonyl)-6-fluoro-1H-indol-2-yl]methoxy}phenyl)-2-thienyl]acetic acid], `CC(C)(C)OC(=O)n1c(COc2ccc(-c3ccc(CC(=O)O)cc3)cc2)cc2ccc(F)cc21` [Reference Example 9, (4′-{[1-(tert-Butoxycarbonyl)-6-fluoro-1H-indol-2-yl]methoxy}-1,1′-biphenyl-4-yl)acetic acid] is higher in mrna remaining at 1 µM: 61.1% for the first, 66% for the second.

Going from `CC(C)(C)OC(=O)c1c(COc2ccc(-c3ccc(CC(=O)O)cc3C(F)(F)F)cc2)ccc(C(F)(F)F)c1O` [Reference Example 27, (4′-{[2-(tert-Butoxycarbonyl)-3-hydroxy-4-(trifluoromethyl)benzyl]oxy}-2-trifluoromethyl-1,1′-biphenyl-4-yl)acetic acid] to `CC(C)(C)OC(=O)c1c(COc2ccc(-c3ccc(CC(=O)O)c(Cl)c3)cc2)ccc(C(F)(F)F)c1O` [Reference Example 14, (4′-{[2-(tert-Butoxycarbonyl)-3-hydroxy-4-(trifluoromethyl)benzyl]oxy}-3-chloro-1,1′-biphenyl-4-yl)acetic acid], the mrna remaining at 1 µM falls from 63.5% to 61.2%.

Same assay, conditions: test compound 10 μM, 18 h, then LPS 100 ng/ml for 6 h, relative to cyclophilin mRNA, DMSO treatment = 100, read-out: Expressed Amount of Tissue Factor mRNA

Compared with `COc1cc2nc(Cc3cccc(F)c3)n(-c3cc(C(O)(C(F)(F)F)C(F)(F)F)ccc3C)c(=O)c2cc1OC` [Reference Example 2, 2-(3-Fluorobenzyl)-6,7-dimethoxy-3-{2-methyl-5-[2,2,2-trifluoro-1-hydroxy-1-(trifluoromethyl)ethyl]phenyl}-4(3H)-quinazolinone], `COc1cc2nc(Cc3ccsc3)n(-c3cc(C(O)(C(F)(F)F)C(F)(F)F)ccc3C)c(=O)c2cc1Cl` [Reference Example 1, 6-Chloro-7-methoxy-3-{2-methyl-5-[2,2,2-trifluoro-1-hydroxy-1-(trifluoromethyl)ethyl]phenyl}-2-(3-thienylmethyl)-4(3H)-quinazolinone] is lower in mrna remaining at 10 µM: 45.2% for the first, 41.1% for the second.

First: Cc1ccc(Cc2nc3ccc(-n4ccnc4)cc3c(=O)n2-c2ccc(C(O)(C(F)(F)F)C(F)(F)F)cc2C)cc1 [Compound G, 6-(1H-Imidazol-1-yl)-2-(4-methylbenzyl)-3-{2-methyl-4-[2,2,2-trifluoro-1-hydroxy-1-(trifluoromethyl)ethyl]phenyl}-4(3H)-quinazolinone]
Second: COc1cc(-n2c(Cc3ccccc3)nc3cc(N4CCOCC4)c(F)cc3c2=O)ccc1C(O)(C(F)(F)F)C(F)(F)F [Compound H, 2-Benzyl-6-fluoro-3-{3-methoxy-4-[2,2,2-trifluoro-1-hydroxy-1-(trifluoromethyl)ethyl]phenyl}-7-(4-morpholinyl)-4(3H)-quinazolinone]
The mrna remaining at 10 µM of the first is lower: 44.7% for the first, 56% for the second.

Going from `CC(C)(C)OC(=O)c1c(COc2ccc(-c3cccc(S(C)(=O)=O)c3)cc2)ccc(C(F)(F)F)c1O` [Reference Example 29, tert-Butyl 2-hydroxy-6-({[3′-(methylsulfonyl)-1,1′-biphenyl-4-yl]oxy}methyl)-3-(trifluoromethyl)benzoate] to `CC(C)(C)OC(=O)c1c(COc2ccc(-c3ccc(C(=O)O)cc3)cc2)ccc(C(F)(F)F)c1O` [Reference Example 34, 4′-{[2-(tert-Butoxycarbonyl)-3-hydroxy-4-(trifluoromethyl)benzyl]oxy}-1,1′-biphenyl-4-carboxylic acid], the mrna remaining at 10 µM falls from 88.4% to 39%.

First: CC(C)(C)OC(=O)c1c(COc2ccc(-c3ccc(C4(C(=O)O)CC4)cc3)cc2)ccc(C(F)(F)F)c1O [Reference Example 28, 1-(4′-{[2-(tert-Butoxycarbonyl)-3-hydroxy-4-(trifluoromethyl)benzyl]oxy}-1,1′-biphenyl-4-yl)cyclopropanecarboxylic acid]
Second: CN(C)c1cc(CC(=O)O)ccc1-c1ccc(OCc2ccc(C(F)(F)F)c(O)c2C(=O)OC(C)(C)C)cc1 [Reference Example 31, [4′-{[2-(tert-Butoxycarbonyl)-3-hydroxy-4-(trifluoromethyl)benzyl]oxy}-2-(dimethylamino)-1,1′-biphenyl-4-yl]acetic acid]
The mrna remaining at 10 µM of the first is higher: 41.7% for the first, 33.7% for the second.
